# Measurements published in the supplement of paper PMC10307832.
# How the values were obtained:
# Assay in all cases: relative viability (nuclei count vs DMSO), 5 days (fraction); higher = more cells survive
# [1] = compound: Cc1ccc(C(=O)N(CCCN)[C@@H](c2nc3cc(Cl)ccc3c(=O)n2Cc2ccccc2)C(C)C)cc1 [Ispinesib] + CC(=O)Nc1cccc(-n2c(=O)n(C3CC3)c(=O)c3c(Nc4ccc(I)cc4F)n(C)c(=O)c(C)c32)c1 [Trametinib] (partner 0.02 µM)
# Outline: (§1)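 Five library-drug doses in √10 steps were combined with a fixed anchor-drug dose, or a single drug was given alone, by pin tool to lung cancer cell lines in 1536-well plates the day after seeding. Nuclei were stained and counted after 5 days. Relative viability is the nuclei count in treated wells over that in vehicle wells, taken as the median of duplicate plates.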
# [2] = compound: C[C@]1(O)C[C@@H](c2nc(-c3ccc4ccc(-c5ccccc5)nc4c3)c3c(N)nccn32)C1 [Linsitinib] + COc1cccc2cc(-c3nc([C@H]4CC[C@H](C(=O)O)CC4)n4ncnc(N)c34)[nH]c12 [OSI-027] (partner 0.5 µM)
# Outline: as §1
# [3] = compound: Cc1ccc(C(=O)N(CCCN)[C@@H](c2nc3cc(Cl)ccc3c(=O)n2Cc2ccccc2)C(C)C)cc1 [Ispinesib] + Cc1nc(Nc2ncc(C(=O)Nc3c(C)cccc3Cl)s2)cc(N2CCN(CCO)CC2)n1 [Dasatinib] (partner 0.075 µM)
# Outline: as §1
# [4] = compound: Cc1ccc(C(=O)N(CCCN)[C@@H](c2nc3cc(Cl)ccc3c(=O)n2Cc2ccccc2)C(C)C)cc1 [Ispinesib] + O=C(c1cc(Cc2n[nH]c(=O)c3ccccc23)ccc1F)N1CCN(C(=O)C2CC2)CC1 [Olaparib] (partner 8 µM)
# Outline: as §1
Cell Line,relative viability ([1]; first compound 0.001 µM),relative viability ([1]; first compound 0.003162 µM),relative viability ([1]; first compound 0.01 µM),relative viability ([1]; first compound 0.03162 µM),relative viability ([1]; first compound 0.1 µM),relative viability ([2]; first compound 0.01 µM),relative viability ([2]; first compound 0.03162 µM),relative viability ([2]; first compound 0.1 µM),relative viability ([2]; first compound 0.3162 µM),relative viability ([2]; first compound 1 µM),relative viability ([3]; first compound 0.001 µM),relative viability ([3]; first compound 0.003162 µM),relative viability ([3]; first compound 0.01 µM),relative viability ([3]; first compound 0.03162 µM),relative viability ([3]; first compound 0.1 µM),relative viability ([4]; first compound 0.001 µM),relative viability ([4]; first compound 0.003162 µM),relative viability ([4]; first compound 0.01 µM),relative viability ([4]; first compound 0.03162 µM),relative viability ([4]; first compound 0.1 µM)
NCI-H2126,0.542,0.574,0.58,0.589,0.508,0.671,0.909,0.596,0.478,0.358,0.671,0.658,0.768,0.566,0.413,0.986,0.963,0.981,1.08,0.85
NCI-H2170,1.02,0.933,1.09,0.684,0.488,0.752,0.756,0.708,0.417,0.638,0.639,0.583,0.58,0.294,0.201,0.593,0.679,0.651,0.481,0.444
NCI-H2228,0.615,0.496,0.415,0.263,0.28,0.57,0.604,0.492,0.335,0.254,0.557,0.522,0.665,0.211,0.2,0.857,0.717,0.543,0.418,0.327
NCI-H2342,0.892,0.819,0.896,0.797,0.722,0.521,0.608,0.608,0.53,0.551,0.284,0.305,0.328,0.284,0.27,0.413,0.423,0.423,0.453,0.328
NCI-H2347,0.299,0.23,0.294,0.343,0.252,0.36,0.517,0.261,–,0.356,0.285,0.209,0.289,0.284,0.282,0.504,0.692,0.592,0.559,0.525
NCI-H2405,0.708,0.632,0.525,0.566,0.478,0.624,0.638,0.637,0.53,0.347,0.208,0.223,0.656,0.184,0.247,0.992,0.942,0.801,0.853,0.556
NCI-H3122,0.284,0.252,0.246,0.316,0.162,0.994,0.868,1.03,–,0.487,0.944,0.917,0.973,0.759,0.127,0.674,0.683,0.743,0.615,0.524
PC-3 [JPC-3],0.717,0.83,0.689,0.664,0.375,0.709,0.79,0.664,0.651,0.463,1.11,1.06,1.14,0.868,0.578,1.23,1.31,0.887,1.12,0.541
PC-14,0.788,0.707,0.282,0.0652,0.101,0.746,0.706,0.798,0.568,0.546,0.221,0.188,0.0739,0.0649,0.133,0.27,0.141,0.0942,0.0729,0.144
RERF-LC-KJ,0.898,0.869,0.787,0.514,0.528,0.617,0.602,0.553,0.298,0.251,0.835,0.697,0.448,0.281,0.391,0.934,0.791,0.427,0.22,0.328
SK-LU-1,0.506,0.524,0.458,0.359,0.356,0.338,–,0.295,0.221,0.197,0.173,0.173,0.173,0.144,0.112,0.606,0.449,0.393,0.435,0.356
SK-MES-1,0.586,0.533,0.583,0.21,0.195,0.541,0.417,0.603,0.458,0.332,0.326,0.373,0.384,0.165,0.231,0.762,0.788,0.648,0.201,0.228
SW 900,0.914,0.947,1.02,0.924,0.326,0.565,0.593,0.481,0.397,0.352,0.561,0.654,0.782,0.246,0.196,0.858,0.889,0.914,0.827,0.418
SW 1573,0.614,0.547,0.516,0.158,0.144,0.772,0.524,0.502,0.393,0.282,0.529,0.426,0.721,0.122,0.153,0.541,0.421,0.447,0.142,0.185
